According to BigSolDB 2.1:

Cl.c1ccc2c(CC3=NCCN3)cccc2c1
solubility (mole fraction)
Details	278.15 K	283.15 K	288.15 K	293.15 K	298.15 K	303.15 K	308.15 K	313.15 K	318.15 K	323.15 K
in 2-methoxyethanol	0.0132	0.0157	0.0184	0.0214	0.0246	0.0287	0.0329	0.0366	0.0419	0.0476
in ethanol	0.00313	0.00386	0.00457	0.00545	0.00639	0.0076	0.00893	0.0104	0.012	0.014
in isopropanol	0.000605	0.000784	0.00101	0.0013	0.00169	0.00202	0.00249	0.00309	0.00377	0.00462
in methanol	0.011	0.0137	0.0164	0.0198	0.0243	0.0287	0.0337	0.04	0.0462	0.0527
